Reference: patent US20250236619A1, “FUSED BICYCLIC COMPOUND CONTAINING PYRROLINONE” (CHIA TAI TIANQING PHARMACEUTICAL GROUP CO., LTD., priority 2022, published 2025)

Key:
[1] = tested on: p-SLP76 phosphorylation of Jurkat cells; assay: Assay for inhibitory activity against p-SLP76 phosphorylation of Jurkat cells; assay type: cell-based; settings: stimulator CD3CD28, 30 min, read-out: IC50 (nM) for inhibition of p-SLP76 phosphorylation of Jurkat cells
Method: 2.1 Assay for Inhibitory Activity Against p-SLP76 Phosphorylation of Jurkat Cells
Jurkat cells in a good growth state were added to a centrifuge tube, centrifuged, and resuspended. The cell density was adjusted to 6.25×10^6 cells/mL, and the cells were seeded in a 384-well small-volume white plate at […]. Different compounds dissolved in DMSO were added to the wells using a nanoliter pipettor to obtain final concentrations of the compounds of 2500 nM to 10.29 nM, and a control was set; the wells were set in duplicate. After 1 h of cell culture, the stimulator CD3CD28 (manufacturer: stemcell, 4 μL) was added and the cells were incubated at 37° C. for 30 min. 3 μL of lysis buffer (manufacturer: BioAuxilium) was added to each well, and the plate was shaken at room temperature for 30 min. After the lysate was well mixed, 5 μL of pre-mixed antibody (manufacturer: BioAuxilium) in assay buffer was added and the plate was incubated overnight at room temperature. The signal values were measured on a PerkinElmer Envision multimode microplate reader (excitation: 320 nm, emission: 615 nm/665 nm), and IC50 was calculated by four-parameter filling.

HPK1 kinase = HPK1 kinase (Homo sapiens (Human), UniProt Q92918); assay: Assay for in vitro inhibitory activity against HPK1 kinase; assay type: biochemical; settings: HPK1 1 ng/μL, ATP 1 mM, STK Substrate 1-biotin 500 nM
HPK1 kinase, sequence (Q92918 whole entry): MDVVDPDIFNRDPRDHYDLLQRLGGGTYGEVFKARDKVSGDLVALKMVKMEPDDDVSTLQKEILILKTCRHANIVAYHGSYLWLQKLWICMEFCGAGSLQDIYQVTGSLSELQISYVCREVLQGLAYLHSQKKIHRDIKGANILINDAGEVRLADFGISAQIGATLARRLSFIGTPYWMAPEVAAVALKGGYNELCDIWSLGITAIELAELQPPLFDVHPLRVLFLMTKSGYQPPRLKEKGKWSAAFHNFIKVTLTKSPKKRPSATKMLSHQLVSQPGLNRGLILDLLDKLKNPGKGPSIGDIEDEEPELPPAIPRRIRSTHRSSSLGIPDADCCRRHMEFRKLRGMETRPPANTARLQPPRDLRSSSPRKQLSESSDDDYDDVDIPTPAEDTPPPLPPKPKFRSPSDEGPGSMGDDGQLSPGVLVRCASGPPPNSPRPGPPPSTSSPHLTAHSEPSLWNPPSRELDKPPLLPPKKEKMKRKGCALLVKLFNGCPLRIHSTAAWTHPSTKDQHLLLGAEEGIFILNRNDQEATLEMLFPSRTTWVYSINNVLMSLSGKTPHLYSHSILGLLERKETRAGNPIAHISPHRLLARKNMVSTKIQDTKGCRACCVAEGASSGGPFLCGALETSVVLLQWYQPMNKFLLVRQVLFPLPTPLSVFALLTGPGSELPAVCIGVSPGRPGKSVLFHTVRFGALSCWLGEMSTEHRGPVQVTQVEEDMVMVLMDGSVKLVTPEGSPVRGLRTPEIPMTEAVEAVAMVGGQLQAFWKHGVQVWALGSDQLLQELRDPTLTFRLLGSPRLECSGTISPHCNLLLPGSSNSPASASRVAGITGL
Method: Experimental Example 1: Assay for In Vitro Inhibitory Activity Against HPK1 Kinase A kinase buffer (Enzymatic buffer 5×) was diluted to 1×, and 10 mM MgCl2, 1 mM DTT, and 0.005% Tween 20 were added. A 100 ng/μL HPK1 (Life technology) stock solution was diluted with the kinase buffer to obtain a 1.67×, 1.67 ng/μL working solution (final concentration: 1 ng/μL), and the working solution was seeded in a 384-well plate at 6 μL/well. Different compounds dissolved in DMSO were added to the wells using a nanoliter pipettor to obtain final concentrations of the compounds of 1000 nM to 0.244 nM (4-fold serial dilution, 7 concentrations in total), and blank control wells (without enzyme) and negative control wells (with enzyme, plus vehicle DMSO) were set; the wells were set in duplicate. After the enzyme and the compounds were incubated at room temperature for 1 h, a 5×, 5 mM ATP dilution (final concentration: 1 mM) in the kinase buffer was mixed with a 5×, […] substrate (Cisbio, STK Substrate 1-biotin; final concentration: 500 nM) in equal volume, and the mixture was added to the plate at 4 µL/well. The plate was sealed with a film and then incubated at room temperature for 2 h. An assay antibody solution was prepared by mixing the antibody STK Antibody-cryptate (Cisbio, 5 μL/test) and a 4×, 500 nM Streptavidin-XL665 (Cisbio; final concentration: 125 nM) in equal volume and added to the plate at 10 μL/well. The plate was incubated at room temperature for 1 h. The signal values (excitation: […]) were measured using a PE Envision multimode microplate reader, and IC50 was calculated by four-parameter fitting.

| Structure (SMILES) | IC50 [1] | IC50 (HPK1 kinase) |
| --- | --- | --- |
| CN(C)Cc1nc(Nc2ccc(-c3cnc4ccc5occc5n34)c3c2C(=O)NC3)ccc1[C@@H]1CCN(C)C(=O)C1 [Compound I-73] | < 50 nM | 2.9 nM |
| CN(C)Cc1nc(Nc2ccc(-c3cnn4c3CC3(CC4)CC3)c3c2C(=O)NC3)ccc1[C@@H]1CCN(C)C(=O)C1 [I-71] | < 50 nM | 3.6 nM |
| CN(C)Cc1nc(Nc2ccc(-c3cnc4ccc5occc5n34)c3c2C(=O)NC3)ccc1[C@H]1CCN(C)C(=O)C1 [Compound I-72] | < 50 nM | 3.7 nM |
